# Assay: Preclinical infusion system assembly (rats) compatibility
# Format: physicochemical
# Conditions: 0.2 mg/mL (Test #1)
# Method: The compatibility of the following brincidofovir formulations with an infusion system assembly for dosing of rats (consisting of a syringe, tether, catheter and syringe pump) was tested
# a.) 0.2 mg/mL brincidofovir, 4 mM sodium phosphate, pH˜8.0, approx. 4.90% dextrose; b.) 1.5 mg/mL brincidofovir, 30 mM sodium phosphate, pH-8.0, approx. 4.25% dextrose.
# Both solutions were prepared via dilution of the developed brincidofovir formulation (10 mg/mL brincidofovir, 200 mM sodium phosphate, pH=8.0) with a 5% dextrose solution. The testing procedure can be summarized as follows: • 1. The appearance, pH, and c(BCV) of the bulk testing solutions (0.2 mg/mL BCV, 4 mM sodium phosphate, pH-8.0, approx. 4.90% dextrose, and 1.5 mg/mL BCV, 30 mM sodium phosphate, pH˜8.0, approx. 4.25% dextrose were assessed pre-contact. • 2. Approximately 5 mL of the testing solution was drawn into a syringe which was then connected to the assembled infusion system (Vascular Access Harness (VAH) tether kit, the VAH port for rat jacket, and catheter). • 3. The infusion system was manually filled with the testing solution. Approximately 200 μL of the testing solution were pushed out of the infusion system and collected as an end-of-line sample (to) for the assessments of appearance and c(BCV). • 4. The syringe of the testing infusion system was mounted onto the syringe pump, and a flow rate was set to a flow of 1.2 mL/h ([…]) for a total dispensing volume of 2.4 mL (120 min). • 5. The entire flow-through was collected over the course of the experiment. At the respective time points (t10min, t105 min), end-of-line samples (approx. 200 μL) were collected for analysis. • 6. The pH of the bulk flow-through was measured at the end of the experiment (t120 min), since the volume of samples acquired from previous time points (200 μL) was too small for a standard pH measurement.
compound,measurement,setting,value
CCCCCCCCCCCCCCCCOCCCOP(=O)(O)CO[C@H](CO)Cn1ccc(N)nc1=O [Brincidofovir],Appearance,pre contact (bulk solution),"Clear, colorless"
same,Measured pH,pre contact (bulk solution),8.0
same,Observed c(BCV),pre contact (bulk solution),0.21 mg/mL
same,Appearance,t0,"Clear, colorless"
same,Observed c(BCV),t0,0.19 mg/mL
same,Appearance,t10 min,"Clear, colorless"
same,Observed c(BCV),t10 min,0.16 mg/mL
same,Appearance,t105 min,"Clear, colorless"
same,Observed c(BCV),t105 min,0.20 mg/mL
same,Appearance,t120 min (bulk solution),"Clear, colorless"
same,Measured pH,t120 min (bulk solution),8.0

# Source: patent US20170368082A1, “FORMULATIONS OF BRINCIDOFOVIR” (priority 2016, published 2017)
